Measured values published in publication PMC6406907, “A H2AX–CARP-1 Interaction Regulates Apoptosis Signaling Following DNA Damage” (Cancers, 2019).

Tested on: MDA-MB-468 cells
Assay: Comet assay (DNA damage), MDA-MB-468
Type: cell-based, human
Design: Tail Moment (Mean) / Olive Tail Moment (Mean): unit not given here
Settings: for percentage of tail DNA and tail moment: 10 μM, 1, 3, 6, 12 h, MDA-MB-468; for Tail Moment (Mean) / Olive Tail Moment (Mean) / %Tail DNA (Mean): MDA-MB-468, 10 µM; for Tail Moment (Mean): control 0.031056; for Olive Tail Moment (Mean): control 0.286711; for %Tail DNA (Mean): control 2.39052, alkaline electrophoresis, Vista Green
Method: The DNA damage assay was performed using a comet assay kit 96-well plate (Cell Bio Labs, CA, USA) as per the manufacturer’s instructions. Briefly, the cell suspension was mixed with the low-melting agarose at 1:20 ratio and added to the pre-coated 96 well plate. The cells were then subjected to lysis for 1 h, followed by alkaline electrophoresis. The plate was then washed in 70% ethanol and Vista Green DNA dye was added. The comets were visualized in Zeiss LSM780 Confocal microscope. The images were processed using Zeiss ZEN lite software and the comet parameters were measured using Open comet software.
Adriamycin is well known to induce DNA damage. Given the critical role of CARP-1 in apoptotic signaling by Adriamycin and CFM compounds, and the fact that stress-activated protein kinases (SAPKs) p38 and JNKs are activated in apoptosis signaling by CFM-4.16 [6, 12, 13, 14, 15, 16, 17, 18], we next determined whether CFM-4.16 also provoked DNA damage. We treated MDA-MB-468 and HeLa cells with a 10 μM dose of Adriamycin or CFM-4.16 for 1, 3, 6, and 12 h, followed by assessment of damaged DNA by the comet assay as described in Section 2. The presence of comet-like tails that contain the fragmented cellular DNA is a well-known marker/indicator of apoptosis. We measured the comet parameters such as percentage tail DNA and mean tail moment. […] Of note is the fact that Adriamycin and related anthracyclines intercalate between DNA bases and trap topoisomerase II (TopoII) in the double-strand cleavage form, thus introducing double-strand breaks (DSBs) due to TopoII poisoning. It remains to be clarified whether CFM-4.16 also targets cellular DNA and/or the associated DNA repair complex protein(s) to introduce DNA strand breaks, or activates caspase-activated DNAses to breakdown cellular genomic DNA.
Figure 2 Adriamycin and CFM-4.16 induce DNA damage. Cells were treated with the noted dose of respective compound for indicated time periods. Mean values for percentage tail DNA content (A,C) and Olive tail moment (B,D) for respective cells from control and treatment periods for each compound were measured using software recommended by the manufacturer of the kit for measurement of DNA damage (Cell Bio Labs, CA, USA). The columns in each chart indicate average values for respective treatment condition; bars, SE; * p ≤ 0.05.
Table S1. Adriamycin and CFM-4.16 stimulate DNA Damage in a time-dependent manner. MDA-MB-468 and HeLa cells were with noted dose of respective compound for indicated time periods.
Mean values for % tail DNA, Tail moment, and Olive tail moment for respective cells from control and treatment periods for each compound were measured using software recommended by the manufacturer of the kit for measurement of DNA damage (Cell Bio Labs, San Diego, CA, USA). The p values for each of the parameter are indicated below the mean values in each column for the treatment time period with each compound for both the cell lines.
Adriamycin (10 µM) CFM-4.16 (10 µM)

SMILES	percentage of tail DNA and tail moment	Tail Moment (Mean) (1 h)	Olive Tail Moment (Mean) (1 h)	%Tail DNA (Mean) (1 h) [%]	Tail Moment (Mean) (3 h)	Olive Tail Moment (Mean) (3 h)	%Tail DNA (Mean) (3 h) [%]	Tail Moment (Mean) (6 h)	Olive Tail Moment (Mean) (6 h)	%Tail DNA (Mean) (6 h) [%]	Tail Moment (Mean) (12 h)	Olive Tail Moment (Mean) (12 h)	%Tail DNA (Mean) (12 h) [%]
COc1cccc2c1C(=O)c1c(O)c3c(c(O)c1C2=O)C[C@@](O)(C(=O)CO)C[C@@H]3O[C@H]1C[C@H](N)[C@H](O)[C@H](C)O1 [Adriamycin, doxorubicin, reference compound]	significantly increased	3.462	2.898	18.75	14.01	9.946	25.75	24.19	14.06	45.55	43.07	20.46	63.02
O=C1N(Cc2ccccc2Cl)c2ccccc2C12NN=C(c1cccc(Cl)c1)S2 (centres unmarked) [CFM-4.16]	significantly increased	0.1504	0.7773	2.507	7.45	4.594	17.24	25.29	13.06	36.18	45.02	24.23	55.6
